In US12404285B2, “KRAS G12D proteolysis targeting chimeras” (PAQ Therapeutics Inc., priority 2022, dated 2025):

Tests used:
[1] = molecular target: T1, KRAS (G12D)-HiBit in AsPc-1-KRAS (G12D)-HiBit-KI cell (Homo sapiens, UniProt P01116, G12D); test: G12D HiBit assay; assay type: cell-based; details: 24 hours compound treatment, absolute DC50, read-out: Average PHA DC50
T1 construct: host or cells: AsPc-1-KRAS (G12D)-HiBit-KI cells (knock-in line)
Outline: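 AsPc-1 cells with HiBiT knocked into KRAS G12D, seeded at 5×10^3/well and held overnight, then treated 24 h with 10-point 3-fold dilutions (300 nM to 0.015 nM). Lytic Nano-Glo HiBiT luminescence expressed as % of 0.1% DMSO control; absolute DC50 from curve fit.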

[2] = molecular target: T2, KRAS in AGS cells (KRAS G12D mutant cell line) or LS180 cells (KRAS G12D mutant cell line) (Homo sapiens, UniProt P01116, G12D); test: KRAS Western Blot (WB) assay; assay type: cell-based; details: KRAS degradation, 24 hours incubation, normalized to β-actin
T2 construct: CRL-187 (LS180) (so in the source); host or cells: AGS or LS180 cells
Outline: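 AGS or LS180 (KRAS G12D) cells treated 24 h with compound; lysates run on SDS-PAGE and immunoblotted for KRAS with β-actin loading control. Fluorescent secondary detection; KRAS bands quantified, normalized to β-actin, giving DC50.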

KRAS G12D [3] = molecular target: T3, KRAS G12D (Homo sapiens, UniProt P01116, G12D); details: switch II pocket of KRAS G12D; noncovalent; cited from earlier work
KRAS G12D [4] = molecular target: T3, KRAS G12D; details: cited from earlier work
[5] = tested on: tumor models harboring KRAS G12D mutations; details: cited from earlier work
KRAS G12C = KRAS G12C (Homo sapiens, UniProt P01116, G12C); details: homozygous and heterozygous tumor cells; cited from earlier work

DC50 [1] [nM]	DC50 [2]	SMILES	also measured
< 100	A (DC50 less than 1 μM)	C#Cc1c(F)ccc2cccc(-c3ncc4c(N5CC6CCC(C5)N6)nc(OC[C@@]56CCCN5[C@H](COC(=O)N5CCC(OCCCc7cccc8c7n(C)c(=O)n8C7CCC(=O)NC7=O)CC5)CC6)nc4c3F)c12 (stereo partly drawn) [Compound 031, [(3S,8S)-8-[[4-(3,8-diazabicyclo[3.2.1]octan-3-yl)-7-(8-ethynyl-7-fluoro-1-naphthyl)-8-fluoro-pyrido[4,3-d]pyrimidin-2-yl]oxymethyl]-1,2,3,5,6,7-hexahydropyrrolizin-3-yl]methyl 4-[3-[1-(2,6-dioxo-3-piperidyl)-3-methyl-2-oxo-benzimidazol-4-yl]propoxy]piperidine-1-carboxylate]	–
< 100	A (DC50 less than 1 μM)	C#Cc1c(F)ccc2cc(O)cc(-c3ncc4c(N5CC6CCC(C5)N6)nc(OC[C@@]56CCCN5[C@H](COC(=O)N5CCC(OCC#Cc7cccc8c7n(C)c(=O)n8C7CCC(=O)NC7=O)CC5)CC6)nc4c3F)c12 (stereo partly drawn) [Compound 033, [(3S,8S)-8-[[4-(3,8-diazabicyclo[3.2.1]octan-3-yl)-7-(8-ethynyl-7-fluoro-3-hydroxy-1-naphthyl)-8-fluoro-pyrido[4,3-d]pyrimidin-2-yl]oxymethyl]-1,2,3,5,6,7-hexahydropyrrolizin-3-yl]methyl 4-[3-[1-(2,6-dioxo-3-piperidyl)-3-methyl-2-oxo-benzimidazol-4-yl]prop-2-ynoxy]piperidine-1-carboxylate]	–
–	–	C#Cc1c(F)ccc2cc(O)cc(-c3ncc4c(N5CC6CCC(C5)N6)nc(OC[C@@]56CCCN5C[C@H](F)C6)nc4c3F)c12 [MRTX1133]	binding affinity (KRAS G12D [3]): picomolar; activity in cellular assays (KRAS G12D [4]): low nanomolar; in vivo efficacy [5]: in vivo efficacy
–	–	C=C(F)C(=O)N1CCN(c2nc(OC[C@@H]3CCCN3CCCOCCC(=O)N[C@H](C(=O)N3C[C@H](O)C[C@H]3C(=O)NCc3ccc(-c4scnc4C)cc3)C(C)(C)C)nc3c2CCN(c2cccc4cccc(Cl)c24)C3)C[C@@H]1CC#N [LC-2]	degradation of KRAS G12C (KRAS G12C): can rapidly degrade KRAS G12C
< 100	A (DC50 less than 1 μM)	C#Cc1c(F)ccc2cc(O)cc(-c3ncc4c(N5CC6CCC(C5)N6)nc(OC[C@@]56CCCN5[C@H](COC(=O)N5CCC(OCCCc7cccc8c7n(C)c(=O)n8C7CCC(=O)NC7=O)CC5)CC6)nc4c3F)c12 (stereo partly drawn) [Compound 032, [(3S,8S)-8-[[4-(3,8-diazabicyclo[3.2.1]octan-3-yl)-7-(8-ethynyl-7-fluoro-3-hydroxy-1-naphthyl)-8-fluoro-pyrido[4,3-d]pyrimidin-2-yl]oxymethyl]-1,2,3,5,6,7-hexahydropyrrolizin-3-yl]methyl4-[3-[1-(2,6-dioxo-3-piperidyl)-3-methyl-2-oxo-benzimidazol-4-yl]propoxy]piperidine-1-carboxylate]	–
